Reference: patent US20060128640A1 (priority 2001, published 2006)
Read-outs that look alike come from different tables or passages of the source.

Key:
[1] = test system: murine mammary adenocarcinoma MA13/C; conditions: for highest non-toxic total dose, component alone: single agent IV, Taxotere d14, 23, flavopiridol d14-17, 20-23
[2] = test system: mammary adenocarcinoma MA 13/C; conditions: for % bwl (nadir): mouse, in vivo, iv; for HNTD (DT), total dose / HNTD (highest non-toxic dose), per dose: single agent IV, days 15, 21
Procedure: A product is considered to be active if log10 cell kill is greater than or equal to 0.7. A product is considered to be very active if log10 cell kill is greater than 2.8.
The animals subjected to the experiment, generally mice, are subcutaneously grafted bilaterally with 30 to 60 mg of a tumor fragment on day zero. The animals bearing tumors are mixed before being subjected to the various treatments and controls. In the case of treatment of advanced tumors, tumors are allowed to develop to the desired size, animals having insufficiently developed tumors being eliminated. The selected animals are distributed at random to undergo the treatments and controls. […] Chemotherapy generally begins from 3 to 22 days after grafting, depending on the type of tumor. The animals are observed every day. The different animal groups are weighed 3 or 4 times a week until the maximum weight loss is attained, and the groups are then weighed at least once a week until the end of the trial.
The tumors are measured 2 or 3 times a week until the tumor reaches approximately 2 g, or until the animal dies, if this occurs before the tumor reaches 2 g. The animals are autopsied after death.

[3] = Flavo alone IV at HNTD 2.9 mg/kg/dose (total 23.2 mg/kg)
[4] = Flavopiridol alone IV 1.75 mg/kg/dose d14-17, 20-23 (total 14)
[5] = Flavopiridol alone IV 2.9 mg/kg/dose d14-17, 20-23 (total 23.2)
[6] = Flavopiridol alone IV 4.8 mg/kg/dose d14-17, 20-23 (total 38.4)
[7] = Taxotere alone IV 48.1 mg/kg/dose d14, 23 (total 96.8)

## CN1CC[C@H](c2c(O)cc(O)c3c(=O)cc(-c4ccccc4Cl)oc23)[C@H](O)C1 [Flavopiridol, cis-5,7-dihydroxy-2-(2-chlorophenyl)-8-[4-(3-hydroxy-1-methyl)-piperidinyl]-1-benzopyran-4-one]
[1]; [3]
  activity rating: inactive
  log cell kill net: −0.4
[1]; Flavo alone IV once a day, day 14 to 17 and 20-23
  highest non-toxic dose (HNTD), per dose: 2.9 mg/kg/dose
[1]; [4]
  CR (complete response): 0/6
  lck Gross: 0.0
[1]; Flavopiridol alone IV 1.75 mg/kg/dose d14-17, 20-23 (total 14), day 24
  % bwl (nadir): +10 (24) %
[1]; [5]
  Comments (toxicity level of the dose): HNTD
  lck Gross: 1.0
[1]; Flavopiridol alone IV 2.9 mg/kg/dose d14-17, 20-23 (total 23.2), 2.9 mg/kg
  CR (complete response): 0/6
[1]; Flavopiridol alone IV 2.9 mg/kg/dose d14-17, 20-23 (total 23.2), listed as Flavo, 2.9 mg/kg
  CR (complete response): no complete regression
[1]; Flavopiridol alone IV 2.9 mg/kg/dose d14-17, 20-23 (total 23.2), nadir day 18
  % bwl (nadir): 3 (18) %
[1]; [6]
  % bwl (nadir): >20%
  Comments: DD: 4/5 DD
[1]
  highest non-toxic total dose, component alone: 23.2 mg/kg
MA13/C; Flavopiridol alone po 2.7 mg/kg days 14-18, 21-25 (total 27)
  lck (log10 cell kill): 0.1
MA13/C; mouse, in vivo, po, 2.7 mg/kg
  % bwl (nadir): 11.6%
[2]; Flavopiridol alone IV 6.0 mg/kg days 15, 21 (total 12.0)
  lck (log10 cell kill): 0.4
[2]; Flavopiridol alone IV 6.0 mg/kg days 15, 21 (total 12.0), 6 mg/kg
  CR (complete response): 0/5 CR
[2]; Flavopiridol alone IV 6.0 mg/kg days 15, 21 (total 12.0), listed as flavopiridol, 6 mg/kg
  CR (complete response): no compete responses in the 5 mice tested
[2]; 6 mg/kg
  % bwl (nadir): 6 (16) %
[2]
  HNTD (DT), total dose: (12.0) mg/kg
  HNTD (highest non-toxic dose), per dose: 6.0 mg/kg

## CC(=O)O[C@@]12CO[C@@H]1C[C@H](O)[C@@]1(C)C(=O)[C@H](O)C3=C(C)[C@@H](OC(=O)[C@H](O)[C@@H](NC(=O)OC(C)(C)C)c4ccccc4)C[C@@](O)([C@@H](OC(=O)c4ccccc4)[C@H]21)C3(C)C [Taxotere ®, docetaxel]
[1]; [7]
  CR (complete response): 6/6
  Comments (toxicity level of the dose): HNTD
  lck Gross: 4.4
[1]; Taxotere alone IV 48.1 mg/kg/dose d14, 23 (total 96.8), nadir day 28
  % bwl (nadir): 8 (28) %
[1]; Taxotere alone IV 78.1 mg/kg/dose d14, 23 (total 156.2)
  Comments: DD: 2/6 DD
[1]; Taxotere alone IV 78.1 mg/kg/dose d14, 23 (total 156.2), nadir day 29
  % bwl (nadir): 20 (29) %
[1]; docetaxel alone at HNTD 48.1 mg/kg/injection (total 96.8 mg/kg)
  log cell kill net: 3
[1]; docetaxel alone, days 14 and 23
  HNTD, per injection: 48.1 mg/kg/injection
[1]
  highest non-toxic total dose, component alone: 96.8 mg/kg
MA13/C; Taxotere alone IV 30 mg/kg days 14, 25 (total 60)
  lck (log10 cell kill): 0.9
MA13/C; mouse, in vivo
  HNTD (DT), total dose: (60) mg/kg
  HNTD, per dose: 30 mg/kg
MA13/C; mouse, in vivo, iv, 30 mg/kg
  % bwl (nadir): 3.6%
  Comments (toxicity level of the dose): HNTD
[2]; Taxotere alone IV 30.0 mg/kg days 15, 21 (total 60.0)
  lck (log10 cell kill): 4.7
[2]; Taxotere alone IV 30.0 mg/kg days 15, 21 (total 60.0), 30 mg/kg
  CR (complete response): 5/5 CR
[2]; Taxotere alone IV 30.0 mg/kg days 15, 21 (total 60.0), listed as Taxotere®, 30 mg/kg
  CR (complete response): complete response in all 5 of the mice
[2]; 30 mg/kg
  % bwl (nadir): 8 (27) %
[2]
  HNTD (DT), total dose: (60.0) mg/kg
  HNTD (highest non-toxic dose), per dose: 30.0 mg/kg
